# Assay results from PMC10187093, “Synthesis, in silico modelling, and in vitro biological evaluation of substituted pyrazole derivatives as potential anti-skin cancer, anti-tyrosinase, and antioxidant agents” (Journal of Enzyme Inhibition and Medicinal Chemistry, 2023).
# Assays:
# [1] = biological target: T1, mushroom tyrosinase (Agaricus bisporus, UniProt C7FF04); assay: In vitro mushroom tyrosinase inhibition assay; type: biochemical
# T1 construct: purchased Sigma-Aldrich Chemical Company (St. Louis, MO) and MP Biomedicals (Irvine, CA)
# T1 sequence (C7FF04 1-392 limits assumed): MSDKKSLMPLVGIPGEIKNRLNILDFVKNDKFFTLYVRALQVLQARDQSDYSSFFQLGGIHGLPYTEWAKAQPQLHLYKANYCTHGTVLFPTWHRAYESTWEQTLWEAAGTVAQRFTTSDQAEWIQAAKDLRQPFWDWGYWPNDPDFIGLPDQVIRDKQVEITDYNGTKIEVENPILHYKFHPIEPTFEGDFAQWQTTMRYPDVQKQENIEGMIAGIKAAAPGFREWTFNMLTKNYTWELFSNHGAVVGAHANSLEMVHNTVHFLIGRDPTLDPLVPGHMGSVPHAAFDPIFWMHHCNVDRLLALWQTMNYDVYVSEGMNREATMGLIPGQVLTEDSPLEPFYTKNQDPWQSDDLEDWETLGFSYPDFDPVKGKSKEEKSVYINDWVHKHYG
# Experimental: The anti-tyrosinase potential of all the synthesised derivatives was determined by an enzymatic tyrosinase inhibition assay based on their ability to inhibit the substrate, L-tyrosine, from binding to the tyrosinase enzyme. […] Test samples were dissolved in DMSO at a concentration of 10 mM and then diluted to different concentrations with phosphate buffer (0.1 M, pH 6.8). Each well contained 40 µL of the sample with 80 µL of phosphate buffer solution (0.1 M, pH 6.8), 40 µL of tyrosinase enzyme (100 units/mL), and 40 µL L-tyrosine (2.5 mM). The mixture was incubated for 30 min at room temperature, and absorbance was measured at 490 nm. Each sample was accompanied by a sample blank containing all components except tyrosinase. […] The percentage of tyrosinase inhibition was calculated as follows: ((ΔAcontrol – ΔAsample)/ΔAcontrol) × 100. IC50 values denoted the sample concentration required to inhibit 50% tyrosinase activity (Table S1).
# [2] = DPPH free radical scavenging assay
# Experimental: An initial screen was done of all 25 derivatives at a concentration of 1 mM. […] Methanol was used as the diluent, and 100 µL of DPPH (200 µM; Sigma-Aldrich, St. Louis, MO) was added to each well. […] The scavenging capacity (SC) was calculated as SC% = ((ΔAcontrol – ΔAsample)/ΔAcontrol) × 100%, where ΔAcontrol was the absorbance of the reagent blank, and ΔAsample was the absorbance of the test samples. The control contained all reagents except the compounds, and all tests were performed in triplicate. Quercetin served as a positive control. The DPPH methanolic solution (1 mL) mixed with DMSO (5 µL) served as a negative control.
# [3] = test system: A431; assay: Immunoblotting of apoptosis markers, A431; type: cell-based, human; settings: western blot, 48 h, vs untreated
# Experimental: Immunoblotting was performed according to standard procedures of the Bio-Rad electrophoresis system (Bio-Rad, Hercules, CA) as described earlier. Briefly, protein extracts were obtained by lysing cells in RIPA buffer containing protease inhibitors, and were resolved by 4–12% polyacrylamide ready mini-PROTEAN TGX gel electrophoresis with sodium dodecyl sulphate (SDS) running buffer. Gels were electrotransferred to 0.45 μm nitrocellulose membranes (Bio-Rad, Hercules, CA) in Tris-glycine (TG) buffer using a Trans-Blot Turbo Transfer Pack according to manufacturer’s instructions. Membranes were incubated for 1 h in 5–7% non-fat powdered milk dissolved in TBST (Tris-buffered saline containing 0.05% Tween 20) or 5% BSA for phosphorylated proteins, to saturate nonspecific binding sites, followed by an overnight incubation (4 °C) with primary antibodies. Membranes were washed 5× with TBST and treated with suitable HRP-conjugated secondary antibodies (Amersham Life Science Inc., Arlington Height, IL) for another 2 h at room temperature, followed by additional wash steps and chemiluminescence-based detection with the Amersham ECL Prime detection reagent kit and the Bio-Rad Quantity One ChemiDoc™ detection and imaging analysis software systems as described earlier[108]^,[109].
compound,measurement,setting,value
O=C1CC(c2ccccc2)=NN1c1ccc(Br)cc1 [P25],inhibition at 500 µM,"[1]; 500 µM, single-concentration screen, read-out: % Inhibition of tyrosinase",21.9%
same,IC50,"[1]; > 500 = not biologically relevant, read-out: IC50 Value, mushroom tyrosinase inhibition (Table S1)",> 500 µM
same,Percent Scavenging (DPPH),[2]; 1 mM,77.30%
same,IC50,"[2]; N.A. = No Activity, > 1000 = not biologically relevant, read-out: IC50 Value, DPPH antioxidant activity (Table S4)",190 µM
same,"activated caspase-3, caspase-9 and cleaved PARP levels, A431",[3]; concentration-dependent,substantially increased levels
same,"anti-apoptotic Bcl-2 protein levels, A431",[3],corresponding decreases
same,"pro-apoptotic Bax expression, A431",[3],dose-dependent amplified expression
